Laboratory results from patent US8829006B2, “Compounds” (Boehringer Ingelheim International GmbH, priority 2007, dated 2014).

Biological target: T1, human CGRP receptor (Homo sapiens, UniProt O60894+Q16602)
T1 construct: SK-N-MC membranes (˜20 μg protein) are incubated for 180 minutes at ambient temperature; endogenous in cells; host or cells: SK-N-MC cells (membranes)
Experiment: Binding studies with SK-N-MC cells (expressing the human CGRP receptor)
Settings: SK-N-MC membranes, 50 pM 125I-iodotyrosyl-CGRP, 180 minutes at ambient temperature
Protocol: A. Binding Studies with SK-N-MC Cells (Expressing the Human CGRP Receptor)
SK-N-MC membranes (˜20 μg protein) are incubated for 180 minutes at ambient temperature with 50 pM ^125I-iodotyrosyl-Calcitonin-Gene-Related Peptide and increasing concentrations of the test substances in a total volume of 250 μl (assay buffer: 10 mM tris, 50 mM NaCl, 5 mM MgCl2, 1 mM EDTA, pH=7.4). The incubation is ended by rapid filtration through GF/B-glass fibre filters treated with polyethyleneimine (0.1%) using a cell harvester. The protein-bound radioactivity is measured using a gamma counter. Non-specific binding is defined as the bound radioactivity after the presence of 1 μM BIBN4096BS during incubation.
The concentration binding curves are analysed using computer-aided non-linear curve fitting.

T1 sequence (Q16602 23-461): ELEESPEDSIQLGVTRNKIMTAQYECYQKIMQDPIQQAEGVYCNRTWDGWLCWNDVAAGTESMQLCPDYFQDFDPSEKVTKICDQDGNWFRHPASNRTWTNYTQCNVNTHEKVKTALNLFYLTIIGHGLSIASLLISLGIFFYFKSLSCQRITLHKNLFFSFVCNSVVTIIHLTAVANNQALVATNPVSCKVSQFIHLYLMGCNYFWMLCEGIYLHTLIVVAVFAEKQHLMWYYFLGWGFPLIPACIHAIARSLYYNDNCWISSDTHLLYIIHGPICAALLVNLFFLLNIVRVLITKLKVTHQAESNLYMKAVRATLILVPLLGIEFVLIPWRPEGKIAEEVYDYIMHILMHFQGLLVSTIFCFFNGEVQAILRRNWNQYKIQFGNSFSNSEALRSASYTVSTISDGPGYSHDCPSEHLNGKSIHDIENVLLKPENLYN
T1 sequence (O60894 27-148): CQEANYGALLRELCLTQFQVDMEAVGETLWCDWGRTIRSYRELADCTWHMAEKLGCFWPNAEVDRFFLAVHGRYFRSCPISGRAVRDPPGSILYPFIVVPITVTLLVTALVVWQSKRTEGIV

Ki [nM]	Compound
5	O=C(c1cc(N2CCC(n3c(=O)[nH]c4ncccc43)CC2)ncn1)N1CCc2cc(F)ccc21 [(36)]
2	CC1(C)CN(C(=O)c2cc(N3CCC(n4c(=O)[nH]c5ncccc54)CC3)ncn2)c2ccc(F)cc21 [(37)]
21	O=C(c1cc(N2CCC(n3c(=O)[nH]c4ncccc43)CC2)ncn1)N1CC(CCCN2CCCC2)c2ccccc21 (stereo not drawn) [(41)]
690	CC1(C)CCN(C(=O)c2cc(N3CCC(n4c(=O)[nH]c5ncccc54)CC3)ncn2)C1 [(50)]
3	CC1(C)CN(C(=O)c2cc(N3CCC(n4c(=O)[nH]c5ncccc54)CC3)ncn2)Cc2ccccc21 [(55)]

The remaining lines, values behind:

Compound	Ki [nM]
COc1ccc2c(c1)CCN(C1CCN(c3cc(C(=O)N4Cc5cn[nH]c5C(C)(C)C4)ncn3)CC1)C(=O)N2 [(8)]	4
O=C(c1cc(N2CCC(n3c(=O)[nH]c4ncccc43)CC2)ncn1)N1CCC2CCCCC21 (stereo not drawn) [(11)]	34
O=C(c1cc(N2CCC(n3nc(-c4ccccc4)[nH]c3=O)CC2)ncn1)N1CCc2ccccc21 [(15)]	21
O=C(c1cc(N2CCC(n3c(=O)[nH]c4ncccc43)CC2)ncn1)N1Cc2ccccc2C1 [(17)]	117
